≈ marks a conversion by molar mass, not a printed value. Entries after “also recorded” stand apart in the source; their conditions may differ.
How the values were obtained:
Meningococci = test: MIC against Meningococci in vitro; format: cell-based; details: Meningococci (average 5 strains); read-out: Minimum Inhibitory Concentration (MIC)
Description: (§1) The compounds of the present invention were subjected to standard tests in order to determine the minimum inhibitory concentration in μg/ml needed to inhibit a range of bacterial microorganisms in-vitro.

Staph. aureus CN491 = test: MIC against Staph. aureus CN491 in vitro; format: cell-based; details: Staphylococcus aureus, read-out: Minimum Inhibitory Concentration (MIC)
Description: as §1

Esch. coli CN314 = test: MIC against Esch. coli CN314 in vitro; format: cell-based; details: Escherichia coli, read-out: Minimum Inhibitory Concentration (MIC)
Description: as §1

[1] = system: Vibrio cholerae ATCC14035; test: MIC against Vibrio cholerae ATCC14035 in vitro; format: cell-based; details: ATCC14035, read-out: Minimum Inhibitory Concentration (MIC)
Description: as §1

St. faecalis CN478 = test: MIC against St. faecalis CN478 in vitro; format: cell-based; details: Enterococcus faecalis, read-out: Minimum Inhibitory Concentration (MIC)
Description: as §1

B. fragilis = test: MIC against B. fragilis in vitro; format: cell-based; details: Bacteroides fragilis; B. fragilis (average 3-10 strains); read-out: Minimum Inhibitory Concentration (MIC)
Description: as §1

Acute toxicity in mouse = details: in vivo, ip; i.p. mouse
[2] = system: four individual gram negative microorganisms and one isolate of S. aureus; test: Checkerboard potentiation study with SMX, overall; format: cell-based; details: words
Protocol: 2. Compound Preparation. Compound 1, trimethoprim (TMP) and SMX were each treated with N,N-dimethylformamide for 30 minutes. Dilutions were prepared using sterile distilled water.
3. Testing procedure. Two checkerboard patterns were set-up, namely: 1. SMX and TMP-lactate and 2. SMX and compound 1-lactate. Thirteen, two-fold dilutions of compound 1-lactate were prepared with final concentrations ranging from 6.2 ug/ml to 0.0016 ug/ml. Twenty two, two-fold dilutions of SMX were prepared with final plate concentrations ranging from 31 ug/ml to 0.000016 ug/ml. An analogous checkerboard scheme was set-up for the combination TMP and SMX. Microorganisms were grown on Wellcotest Sensitivity Test Agar containing various concentrations and permutations of compounds.
From the MIC's, a fractional inhibitory concentration (FIC) was calculated. This involves determining a fraction by dividing the MIC of an agent in combination over the MIC of the agent alone (1). If it is less than one, the interaction is synergistic, and if the sum is greater than one, the combination is antagonistic.

Pr. mirabilis S2409 = test: MIC against Pr. mirabilis S2409 in vitro; format: cell-based; details: Proteus mirabilis, read-out: Minimum Inhibitory Concentration (MIC)
Description: as §1

Gonococci = test: MIC against Gonococci in vitro; format: cell-based; details: Gonococci (average 17 strains); read-out: Minimum Inhibitory Concentration (MIC)
Description: as §1

Acute toxicity in rat = details: in vivo, po; p.o. rat
St. agalactiae CN1143 = test: MIC against St. agalactiae CN1143 in vitro; format: cell-based; details: Streptococcus agalactiae, read-out: Minimum Inhibitory Concentration (MIC)
Description: as §1

Salmonella dublin [3] = test: Experimental salmonellosis in calves; format: in vivo; details: for Mortality: 5 days from two days after infection, deaths/calves
Salmonella dublin [4] = details: even at 40 mg/kg/day; cited from earlier work

Row | SMILES | MIC (Meningococci) [µg/mL] | MIC (Staph. aureus CN491) [µg/mL] | MIC (Esch. coli CN314) [µg/mL] | MIC [1] [µg/mL] | MIC (St. faecalis CN478) [µg/mL] | MIC (B. fragilis) [µg/mL] | LD50 (Acute toxicity in mouse) [mg/kg] | in vitro potentiation with SMX [2] | MIC (Pr. mirabilis S2409) [µg/mL] | MIC (Gonococci) [µg/mL] | LD50 (Acute toxicity in rat) [mg/kg] | MIC (St. agalactiae CN1143) [µg/mL] | Mortality (Salmonella dublin [3]; 0.5 mg/kg daily plus SDZ 20 mg/kg) | reduction of mortality, in words (Salmonella dublin [3]; 0.5 mg/kg plus SDZ 20 mg/kg, in comparison with TMP 1 mg/kg) | Mortality (Salmonella dublin [3]; 1 mg/kg daily plus SDZ 20 mg/kg) | efficacy relative to TMP (Salmonella dublin [3]; 1 mg/kg each, plus SDZ 20 mg/kg) | recovery of the survivors (Salmonella dublin [3]; 1 mg/kg plus SDZ 20 mg/kg, in comparison with TMP 1 mg/kg (group 1)) | effectiveness relative to TMP (Salmonella dublin [3]; with SDZ 20 mg/kg, conclusion from all groups) | effect on mortality, SDZ alone (Salmonella dublin [4])
1 | COc1cc(Cc2cnc(N)nc2N)c2c(c1OC)OCC=C2 [Compound 1, 2,4-Diamino-5-(7,8-dimethoxy-2 --H--1-benzopyran-5-ylmethyl)-pyrimidine] | 3.1 (≈ 9.86 µM) | 0.05 (≈ 0.159 µM) | 0.05 (≈ 0.159 µM) | 0.05 (≈ 0.159 µM) | 0.05 (≈ 0.159 µM) | 1.08 (≈ 3.44 µM) | 610 | SMX appears to potentiate compound 1 as well as it does TMP; also recorded: in vitro potentation can be demonstrated between SMX and compound 1 in the case of four individual gram negative microorganisms and one isolate of S. aureus | 5 (≈ 15.9 µM) | 10 (≈ 31.8 µM) | > 1000 | 0.05 (≈ 0.159 µM) | 3/7 | produced a reduction of mortality comparable with that in group 1 (TMP, 1 mg/kg) | 0/6 | clearly superior to TMP at 1 mg/kg | much more rapid recovery of the survivors in group 2 | approximately twice as effective as TMP in this disease syndrome | 
2 | Nc1ccc(S(=O)(=O)Nc2ncccn2)cc1 [SDZ] |  |  |  |  |  |  |  |  |  |  |  |  |  |  |  |  |  |  | no effect on mortality in this disease model
